Assay results from patent US10485236B2, “Triazole derivatives, intermediates thereof and their use as fungicides” (Bayer CropScience Aktiengesellschaft, priority 2015, dated 2019).

Legend:
Uromyces appendiculatus = test: Example E: in vivo preventive test on Uromyces appendiculatus (bean rust); details: 264 h, 500 ppm of active ingredient, bean plants, preventive spray, evaluated 11 days after inoculation, read-out: efficacy
Procedure: Example E: In Vivo Preventive Test on Uromyces appendiculatus (Bean Rust) [table] The active ingredients are made soluble and homogenized in a mixture of Dimethyl sulfoxide/Acetone//Tween® 80 and then diluted in water to the desired concentration. The young plants of bean are treated by spraying the active ingredient prepared as described above. Control plants are treated only with an aqueous solution of Acetone/Dimethyl sulfoxide/Tween® 80. After 24 hours, the plants are contaminated by spraying the leaves with an aqueous suspension of Uromyces appendiculatus spores. The contaminated bean plants are incubated for 24 hours at 20° C. and at 100% relative humidity and then for 10 days at 20° C. and at 70-80% relative humidity. The test is evaluated 11 days after the inoculation. 0% means an efficacy which corresponds to that of the control plants while an efficacy of 100% means that no disease is observed.

Alternaria solani = test: Example F: in vivo preventive test on Alternaria test (tomatoes); details: 72 h, 100 ppm of active ingredient, preventive spray, evaluated 3 days after inoculation, read-out: efficacy
Procedure: Example F: In Vivo Preventive Test on Alternaria Test (Tomatoes) [table] To produce a suitable preparation of active compound, 1 part by weight of active compound is mixed with the stated amounts of solvent and emulsifier, and the concentrate is diluted with water to the desired concentration. To test for preventive activity, young plants are sprayed with the preparation of active compound at the stated rate of application. After the spray coating has dried on, the plants are inoculated with an aqueous spore suspension of Alternaria solani. The plants are then placed in an incubation cabinet at approximately 20° C. and a relative atmospheric humidity of 100%. The test is evaluated 3 days after the inoculation. 0% means an efficacy which corresponds to that of the untreated control while an efficacy of 100% means that no disease is observed.

[1] = system: Blumeria graminis f.sp. hordei; test: Example I: in vivo preventive Blumeria test (barley); details: 168 h, 500 ppm of active ingredient, preventive spray, evaluated 7 days after inoculation, read-out: efficacy
Procedure: Example I: In Vivo Preventive Blumeria Test (Barley) [table] To produce a suitable preparation of active compound, 1 part by weight of active compound or active compound combination is mixed with the stated amounts of solvent and emulsifier, and the concentrate is diluted with water to the desired concentration. To test for preventive activity, young plants are sprayed with the preparation of active compound or active compound combination at the stated rate of application. After the spray coating has been dried, the plants are dusted with spores of Blumeria graminis f.sp. hordei. The plants are placed in the greenhouse at a temperature of approximately 18° C. and a relative atmospheric humidity of approximately 80% to promote the development of mildew pustules. The test is evaluated 7 days after the inoculation. 0% means an efficacy which corresponds to that of the untreated control, while an efficacy of 100% means that no disease is observed.

Leptosphaeria nodorum = test: Example J: in vivo preventive Leptosphaeria nodorum test (wheat); details: Parastagonospora nodorum, 192 h, 500 ppm of active ingredient, preventive spray, evaluated 8 days after inoculation, read-out: efficacy
Procedure: Example J: In Vivo Preventive Leptosphaeria nodorum Test (Wheat) [table] To produce a suitable preparation of active compound, 1 part by weight of active compound or active compound combination is mixed with the stated amounts of solvent and emulsifier, and the concentrate is diluted with water to the desired concentration. To test for preventive activity, young plants are sprayed with the preparation of active compound or active compound combination at the stated rate of application. After the spray coating has been dried, the plants are sprayed with a spore suspension of Leptosphaeria nodorum. The plants remain for 48 hours in an incubation cabinet at approximately 20° C. and a relative atmospheric humidity of approximately 100%. The plants are placed in the greenhouse at a temperature of approximately 25° C. and a relative atmospheric humidity of approximately 80%. The test is evaluated 8 days after the inoculation. 0% means an efficacy which corresponds to that of the untreated control, while an efficacy of 100% means that no disease is observed.

Septoria tritici = test: Example L: in vivo preventive Septoria tritici test (wheat); details: Zymoseptoria tritici, 504 h, 500 ppm of active ingredient, preventive spray, evaluated 21 days after inoculation, read-out: efficacy
Procedure: Example L: In Vivo Preventive Septoria tritici Test (Wheat) [table] To produce a suitable preparation of active compound, 1 part by weight of active compound or active compound combination is mixed with the stated amounts of solvent and emulsifier, and the concentrate is diluted with water to the desired concentration. To test for preventive activity, young plants are sprayed with the preparation of active compound or active compound combination at the stated rate of application. After the spray coating has been dried, the plants are sprayed with a spore suspension of Septoria tritici. The plants remain for 48 hours in an incubation cabinet at approximately 20° C. and a relative atmospheric humidity of approximately 100% and afterwards for 60 hours at approximately 15° C. in a translucent incubation cabinet at a relative atmospheric humidity of approximately 100%. The plants are placed in the greenhouse at a temperature of approximately 15° C. and a relative atmospheric humidity of approximately 80%. The test is evaluated 21 days after the inoculation. 0% means an efficacy which corresponds to that of the untreated control, while an efficacy of 100% means that no disease is observed.

Sphaerotheca fuliginea = test: Example M: in vivo preventive test on Sphaerotheca (cucumbers); comparison of phenoxy-pyridyl compounds vs. known phenoxy-phenyl compounds; details: Podosphaera fuliginea, 168 h, rate of application 10 ppm, evaluated 7 days after inoculation, read-out: Efficacy in %
Procedure: Example M: In Vivo Preventive Test on Sphaerotheca (Cucumbers); Comparison of Phenoxy-pyridyl Compounds According to the Invention Vs. Known Phenoxy-phenyl Compounds [table] To produce a suitable preparation of active compound, 1 part by weight of active compound is mixed with the above stated amounts of solvent and emulsifier, and the concentrate is diluted with water to the desired concentration. To test for preventive activity, young plants are sprayed with the preparation of active compound at the stated rate of application. After the spray coating has dried on, the plants are inoculated with an aqueous spore suspension of Sphaerotheca fuliginea. The plants are then placed in a greenhouse at approximately 23° C. and a relative atmospheric humidity of approximately 70%. The test is evaluated 7 days after the inoculation. 0% means an efficacy which corresponds to that of the untreated control, while an efficacy of 100% means that no disease is observed. [table]

Botrytis cinerea = test: Example A: in vivo preventive test on Botrytis cinerea (grey mould), gherkin; details: gherkin plants, preventive spray, evaluated 4 to 5 days after inoculation, read-out: efficacy
Procedure: Example A: In Vivo Preventive Test on Botrytis cinerea (Grey Mould) [table] The active ingredients are made soluble and homogenized in a mixture of Dimethyl sulfoxide/Acetone//Tween® 80 and then diluted in water to the desired concentration. The young plants of gherkin are treated by spraying the active ingredient prepared as described above. Control plants are treated only with an aqueous solution of Acetone/Dimethyl sulfoxide/Tween® 80. After 24 hours, the plants are contaminated by spraying the leaves with an aqueous suspension of Botrytis cinerea spores. The contaminated gherkin plants are incubated for 4 to 5 days at 17° C. and at 90% relative humidity. The test is evaluated 4 to 5 days after the inoculation. 0% means an efficacy which corresponds to that of the control plants while an efficacy of 100% means that no disease is observed.

Row | SMILES | pest or weed control at 500 ppm (Uromyces appendiculatus) | pest or weed control at 100 ppm (Alternaria solani) | pest or weed control at 500 ppm [1] | pest or weed control at 500 ppm (Leptosphaeria nodorum) | pest or weed control at 500 ppm (Septoria tritici) | pest or weed control at 10 ppm (Sphaerotheca fuliginea) | pest or weed control (Botrytis cinerea)
1 | CC(O)(Cn1cncn1)c1ccc(Oc2ccc(S(F)(F)(F)(F)F)cc2)nc1Cl (stereo not shown) [I.35] | 90 to 100% | 90 to 100% | 90 to 100% | 80 to 89% | 90 to 100% | 100% | –
2 | OC(Cn1cncn1)c1cnc(Oc2ccc(S(F)(F)(F)(F)F)cc2)cc1C(F)(F)F (stereo not shown) [I.36] | 90 to 100% | 90 to 100% | 90 to 100% | 90 to 100% | 90 to 100% | 100% | –
3 | CC(O)(Cn1cncn1)c1ccc(Oc2ccc(C(F)F)cc2)nc1Cl (stereo not shown) [I.39] | 90 to 100% | 90 to 100% | 90 to 100% | 70 to 79% | 70 to 79% | 97% | 90 to 100%
4 | C[C@@](O)(Cn1cncn1)c1cnc(Oc2ccc(Cl)cc2)cc1C(F)(F)F [I.45] | 90 to 100% | 90 to 100% | 90 to 100% | 90 to 100% | 90 to 100% | 99% | 90 to 100%
5 | OC(Cn1cncn1)c1cnc(Oc2ccc(C(F)(F)F)cc2)cc1C(F)(F)F (stereo not shown) [I.47] | 90 to 100% | 90 to 100% | 90 to 100% | 90 to 100% | 90 to 100% | 100% | 80 to 89%
6 | OC(Cn1cncn1)(c1ccc(Oc2ccc(Cl)cc2)nc1C(F)(F)F)C1CC1 (stereo not shown) [I.91, 1-[6-(4-chlorophenoxy)-2-(trifluoromethyl)-3-pyridyl]-1-cyclopropyl-2-(1,2,4-triazol-1-yl)ethanol] | 90 to 100% | – | 90 to 100% | – | 80 to 89% | – | 90 to 100%
7 | O=C(Cn1cncn1)c1ccc(Oc2ccc(Cl)cc2)nc1C(F)(F)F [VII.01, 1-[6-(4-chlorophenoxy)-2-(trifluoromethyl)-3-pyridyl]-2-(1,2,4-triazol-1-yl)ethanone] | 90 to 100% | 80 to 89% | 90 to 100% | 90 to 100% | 90 to 100% | 78% | –
